The target in the test is T1, PAD4 (Homo sapiens, UniProt Q9UM07, G112A/G55S/V82A).
T1 construct: made in house
Put plainly: Inhibition reaction of Bz-Arg derivatives on PAD4 digestion. In kind it is biochemical. As to conditions: substrate Bz-Arg; 20 μl inhibitor solution of 1 nmol/μl; 10 mM CaCl2, pH 7.6; 37° C. for 40 or 60 minutes; reverse-phase HPLC. As for the experimental part:
A buffer solution B (0.1 M Tris/HCl, 10 mM CaCl2, 2 mM DTT, pH 7.6, 125 μl), Bz-Arg (0.1 M Tris/HCl, 10 mM CaCl2, pH 7.6, 25 μl (a solution prepared in a concentration of 1 nmol/μl)) and PAD4 (1 μl) were mixed together under ice-cooling to give a Bz-Arg solution. PAD4 was prepared in accordance with the methods described in The Journal of Biological Chemistry, Vol. 277, No. 51, pp. 49562-49568, 2002 and in the documents cited in the journal. Twenty μl each of Bz-Arg (mono-methyl), Bz-ADMA, Bz-SDMA and a buffer solution A (0.1 M Tris/HCl, 10 mM CaCl2, pH 7.6) (a solution prepared in a concentration of 1 nmol/μl) was mixed with the Bz-Arg solution (30 μl) and allowed to react at 37° C. for 40 or 60 minutes. The reaction was quenched with 1 M HCl (50 μl) and then subjected to reverse-phase HPLC to separate the reaction mixture. […] The results as determined 40 minutes and 60 minutes after the start of reaction are shown in FIG. 3 and FIG. 4, respectively. In FIGS. 3 and 4, the reference number 1 represents the result with no inhibitor, 2 for the result with Bz-Arg (mono-methyl), 3 for the results with Bz-ADMA, and 4 for the result with Bz-SDMA; the vertical axis indicates the sample number and the horizontal axis indicates the yield of the deimination reaction (i.e., yield of the Bz-citrulline produced).

Structures are written as SMILES.

T1 sequence (Q9UM07 whole entry G55S/V82A/G112A): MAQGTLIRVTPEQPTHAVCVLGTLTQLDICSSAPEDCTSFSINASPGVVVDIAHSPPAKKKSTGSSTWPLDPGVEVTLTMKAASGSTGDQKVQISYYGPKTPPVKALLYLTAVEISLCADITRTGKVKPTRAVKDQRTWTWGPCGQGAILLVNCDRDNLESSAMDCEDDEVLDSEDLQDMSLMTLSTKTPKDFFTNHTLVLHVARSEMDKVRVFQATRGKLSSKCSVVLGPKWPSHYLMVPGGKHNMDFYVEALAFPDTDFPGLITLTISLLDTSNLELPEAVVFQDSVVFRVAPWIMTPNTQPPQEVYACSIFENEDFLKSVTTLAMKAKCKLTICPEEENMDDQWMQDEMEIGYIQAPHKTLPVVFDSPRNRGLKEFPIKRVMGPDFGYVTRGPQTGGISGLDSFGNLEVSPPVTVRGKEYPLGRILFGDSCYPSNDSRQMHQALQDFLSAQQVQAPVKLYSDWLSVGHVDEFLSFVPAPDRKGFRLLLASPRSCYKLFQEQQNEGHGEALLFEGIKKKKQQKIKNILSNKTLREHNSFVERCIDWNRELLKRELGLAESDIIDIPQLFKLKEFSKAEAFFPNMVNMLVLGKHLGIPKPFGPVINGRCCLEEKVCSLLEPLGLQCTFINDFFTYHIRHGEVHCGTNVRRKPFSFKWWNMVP

`CN(C)C(=N)NCCCC(NC(=O)c1ccccc1)C(=O)O` (centres unmarked) [Bz-ADMA]: the “inhibitory effect on PAD4 digestion (deimination of Bz-Arg, yield of the Bz-citrulline produced)” value is “most potent inhibitory effect”.

In the case of `C/N=C(/NC)NCCCC(NC(=O)c1ccccc1)C(=O)O` (centres unmarked) [Bz-SDMA], the “inhibitory effect on PAD4 digestion (deimination of Bz-Arg, yield of the Bz-citrulline produced)” value is “no inhibitory effect”.

Source of the values: patent US20070276040A1, “Peptidyl Arginine Deiminase Type IV Inhibitor” (priority 2004, published 2007).
